Consider two molecules from article PMC3368886, “ATPase Cycle and DNA Unwinding Kinetics of RecG Helicase” (PLoS ONE, 2012).

Holding throughout (format): biochemical
Assay [1] addresses T1, RecG (Thermotoga maritima, UniProt Q9WY48).
T1 construct: made in house
T1 sequence (Q9WY48 1-780): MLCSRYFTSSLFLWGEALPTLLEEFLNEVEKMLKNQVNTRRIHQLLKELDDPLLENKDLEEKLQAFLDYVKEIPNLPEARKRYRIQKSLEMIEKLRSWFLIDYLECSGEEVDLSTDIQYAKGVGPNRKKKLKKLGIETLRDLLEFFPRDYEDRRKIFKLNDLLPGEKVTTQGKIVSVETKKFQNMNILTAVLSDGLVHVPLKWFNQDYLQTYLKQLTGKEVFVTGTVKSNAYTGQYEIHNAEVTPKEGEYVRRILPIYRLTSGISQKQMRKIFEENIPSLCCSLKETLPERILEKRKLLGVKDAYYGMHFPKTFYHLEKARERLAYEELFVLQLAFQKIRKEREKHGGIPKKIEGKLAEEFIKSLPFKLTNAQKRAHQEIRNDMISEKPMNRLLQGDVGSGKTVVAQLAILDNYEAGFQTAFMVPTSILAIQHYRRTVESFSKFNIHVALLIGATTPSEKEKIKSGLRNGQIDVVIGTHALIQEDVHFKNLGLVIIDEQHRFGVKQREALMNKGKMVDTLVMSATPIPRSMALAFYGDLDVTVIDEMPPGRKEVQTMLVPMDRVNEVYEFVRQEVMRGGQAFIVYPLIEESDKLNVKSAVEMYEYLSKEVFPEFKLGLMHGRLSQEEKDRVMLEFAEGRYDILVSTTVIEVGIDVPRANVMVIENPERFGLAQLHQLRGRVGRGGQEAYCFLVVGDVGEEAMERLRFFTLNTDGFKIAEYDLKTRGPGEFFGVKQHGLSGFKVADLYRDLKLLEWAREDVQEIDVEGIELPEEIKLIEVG
In words: ATP hydrolysis during unwinding (phosphate biosensor, heparin trap). The conditions noted are these: 200 nM 4-strand complementary junction, 10 nM RecG, 200 µM ATP. As for the experimental part:
The rate of ATP hydrolysis and total ATP usage during unwinding were measured using the phosphate biosensor (Figure 8), following rapid mixing of ATP with the RecG⋅DNA complex. […] Heparin is a potent inhibitor of many helicases, mimicking the DNA substrate and binding tightly to the enzyme, once the latter dissociates from the DNA, and so prevents rebinding of the helicase to fresh DNA substrates. The initial, rapid phase, which represents unwinding of the first DNA junction, was unaffected by the presence of heparin. […] RecG will continue to hydrolyze ATP while bound to the DNA substrate.
Figure 8 ATP hydrolysis during unwinding 4-strand complementary junctions. Junctions of varying arm lengths (shown in b.p.) were used to measure the rate of ATP hydrolysis during unwinding. RecG was pre-incubated with junction and the reactions were initiated by rapid mixing with ATP and heparin. […]
The ATPase measurement was repeated with different lengths of lagging and leading strands, as used in the unwinding measurements, in the presence of heparin (Figure 8 main panel). […] The ATPase rate measured here is similar to the steady-state and hydrolysis rate constants measured in the above sections, supporting the idea that the ATP hydrolysis reaction is not greatly affected by the type of junction.

For a further assay, the target named is T2, RecG⋅DNA(A40:B40) (Thermotoga maritima, UniProt Q9WY48).
T2 construct: made in house
T2 sequence (Q9WY48 1-780): T1 sequence (Q9WY48 1-780)
In words: Kinetic model simulation of single turnover of mantATP. As to the method: In order to test the data obtained with mantATP for consistency, a simple kinetic model for the ATPase mechanism was used to simulate the data in Figure 4A. The model was based on the scheme in Figure 2A, but included a two-step triphosphate binding as in Figure 2B. The model assumed that Pi release is irreversible and mantADP remains bound under these conditions as its K d (<50 nM) is much less than the experimental concentrations. The difference in fluorescence intensity between protein-bound mantATP and mantADP was included in the modeling with bound mantATP representing 20% of the overall increase, as shown experimentally. The best-fit simulation is shown in Figure 4B, which gave mantATP binding at 5.7 s^−1, followed by a rapid step (“conformation change”) of 30 s^−1, hydrolysis at 0.25 s^−1 and Pi release is fast (>10 s^−1). […] There is a discrepancy with the fit to the data at long times, as the experimental traces are slightly biphasic, which could be due to a small proportion of the protein having modified activity due to damage, for example.
Data were fitted to theoretical equations using the stopped-flow software or Grafit. Kinetic simulations were performed using Berkeley Madonna (Version 8.3, University of California at Berkeley) and using Global Kinetic Explorer (Kintek). Global fits were performed using Global Kinetic Explorer.

For assay [2], the target named is T1, RecG. Nature of the assay: Double-mix stopped-flow: RecG⋅mantATP then mixed with DNA. The conditions noted are these: RecG + mantATP aged 1 s, then mixed with DNA junction (A40:B40). As to the method:
Figure 4 Kinetic measurement of mantATP with excess of RecG and DNA: binding, hydrolysis and Pi release. The concentrations for all experiments were 0.5 µM mantATP, 2.5 µM RecG, 5 µM DNA (A40:B40) and 10 µM MDCC-PBP (for Pi measurement). All measurements were carried out at 20°C in the buffer described in Materials and Methods. (A) Time course of mant fluorescence (solid line), mantADP formation (circles) and Pi release (dashed line), measured as described in materials and methods. […] (B) Simulation of these time courses, based upon a global model for a single turnover of mantATP as described in the text. (C) The time course of mant fluorescence upon mixing 0.5 µM mantATP and 2.5 µM RecG with 5 µM DNA junction (A40:B40) after a first mixing of 5 µM RecG and 1 µM mantATP and aging for 1 s.
As the cleavage step is so slow in the absence of DNA, a double-mix, stopped-flow experiment was performed in order to see if the biphasic increase in mant fluorescence could be separated into the individual processes of mantATP binding and hydrolysis. An excess of RecG was mixed with mantATP and this mix aged for 1 s to allow binding but not hydrolysis. This solution was then mixed with DNA. […] This rate was similar to that of the slower phase, measured above, consistent with this phase being due to DNA-induced hydrolysis.

The structures appear in SMILES notation.

As for `Nc1ncnc2c1ncn2[C@@H]1O[C@H](COP(=O)(O)OP(=O)(O)OP(=O)(O)O)[C@@H](O)[C@H]1O` [ATP], the “rate of ATP hydrolysis during unwinding phase” value at RecG [1] was found to be 5.8 s⁻¹.
Take `CNc1ccccc1C(=O)O[C@H]1[C@@H](O)[C@H](n2cnc3c(N)ncnc32)O[C@@H]1COP(=O)(O)OP(=O)(O)OP(=O)(O)O` [mantATP, 2′(3′)-O-(N-methylanthraniloyl)ATP]: at RecG⋅DNA(A40:B40), the “Pi release (best-fit simulation)” value was > 10 s⁻¹, the “hydrolysis (best-fit simulation)” value was 0.25 s⁻¹, the “mantATP binding (best-fit simulation)” value was 5.7 s⁻¹ and the “rapid step (conformation change) (best-fit simulation)” value is 30 s⁻¹. Besides, the “rate constant of single exponential increase in mant fluorescence” value at RecG [2] is recorded as 0.3 (±0.04) s^−1.
